Patent US7037644B1, “Means and methods for monitoring non-nucleoside reverse transcriptase inhibitor antiretroviral therapy and guiding therapeutic decisions in the treatment of HIV/AIDS” (ViroLogic, Inc., priority 1998, dated 2006)
Where “and” joins values, the source holds several entries; their conditions need not be identical. Identical values can stand only once. Entries after “also recorded” stand apart in the source; their conditions may differ.

What was measured:
Assay in all cases: Phenotypic susceptibility assay (site directed mutant RTV)
Type in all cases: cell-based, HIV-1
[1] = system: P236L-RTV; conditions: P236L alone vs wild type reference RTV; also statements 'codon 236 alone or in combination'
From the text: (§1) The resistance test vectors containing a functional luciferase gene cassette were constructed and host cells were transfected with the resistance test vector DNA. The resistant test vectors contained patient-derived reverse transcriptase and protease sequences that were either susceptible or resistant to the antiretroviral agents, such as nucleoside reverse transcriptase inhibitors, non-nucleoside reverse transcriptase inhibitors and protease inhibitors. The resistance test vector viral particles produced by transfecting the resistance test vector DNA into host cells, either in the presence or absence of protease inhibitors, were used to infect target host cells grown either in the absence of NRTI or NNRTI or in the presence of increasing concentrations of the drug. The amount of luciferase activity produced in infected target host cells in the presence of drug was compared to the amount of luciferase produced in infected target host cells in the absence of drug. Drug resistance was measured as the amount of drug required to inhibit by 50% the luciferase activity detected in the absence of drug (inhibitory concentration 50%, IC50). The IC50 values were determined by plotting percent drug inhibition vs. log10 drug concentration.
(§2) Host cells were seeded in 10-cm-diameter dishes and were transfected several days after plating with resistance test vector plasmid DNA and the envelope expression vector. Transfections were performed using a calcium-phosphate precipitation procedure. The cell culture media containing the DNA precipitate was replaced with fresh medium, from one to 24 hours, after transfection. Cell culture media containing resistance test vector viral particles was harvested one to four days after transfection and was passed through a […] filter before being stored at […]. HIV capsid protein (p24) levels in the harvested cell culture media were determined by an EIA method as described by the manufacturer (SIAC; Frederick, Md.). Before infection, target cells (293 and 293/T) were plated in cell culture media. Control infections were performed using cell culture media from mock transfections (no DNA) or transfections containing the resistance test vector plasmid DNA without the envelope expression plasmid. One to three or more days after infection the media was removed and cell lysis buffer (Promega) was added to each well. Cell lysates were assayed for luciferase activity (FIG. 3). The inhibitory effect of the drug was determined using the following equation: % luciferase inhibition=1−(RLUluc [drug]÷RLUluc)×100 where RLUluc [drug] is the relative light unit of luciferase activity in infected cells in the presence of drug and RLUluc is the Relative Light Unit of luciferase activity in infected cells in the absence of drug. IC50 values were obtained from the sigmoidal curves that were generated from the data by plotting the percent inhibition of luciferase activity vs. the log10 drug concentration. The drug inhibition curves are shown in (FIG. 3).
(§3) Genotypic changes that are observed to correlate with changes in phenotypic patterns of drug susceptibility are evaluated by construction of resistance test vectors containing the specific mutation on a defined, wild-type (drug susceptible) genetic background. Mutations may be incorporated alone and/or in combination with other known drug resistance mutations that are thought to modulate the susceptibility of HIV to a certain drug or class of drugs. Mutations are introduced into the resistance test vector through any of the widely known methods for site-directed mutagenesis. In one embodiment of this invention the mega-primer PCR method for site-directed mutagenesis is used. […]

[2] = system: RTV with P225H plus K103N, Y181C or both; conditions: P225H with K103N and/or Y181C vs RTV lacking P225H; also statements 'codon 225 alone or in combination with 103'
From the text: as §1, §2, §3

[3] = system: E138A-RTV; conditions: E138A alone
From the text: as §1, §2
(§4) The E138A mutation alone and in combination with Y188L was introduced into resistance test vectors using the mega-primer method for site-directed mutagenesis (Sakar and Sommar, Ibid.). Resistance rest vectors containing the E138A mutation (E138A-RTV) or he E138 mutation along with the […] mutation (E138A-Y188L-RTV) were then tested using the phenotypic assay described earlier and the results were compared to those determined using a genetically defined resistance test vector that was wild type at positions 188 and 138. We determined the pattern of phenotypic susceptibility to the NNRTIs, delavirdine, nevirapine and efavirenz, in the E138A-RTV, Y188L-RTV and E138-Y188L-RTV.

[4] = system: E138A-Y188L-RTV; conditions: for loss of susceptibility (fold, IC50) vs wild type control RTV: E138A and Y188L; for change in susceptibility: mutations at codons 138 and 188
From the text: as §1, §2, §4

[5] = system: A98G-RTV; conditions: for loss of susceptibility (fold, IC50) vs wild type control RTV: A98G alone; for change in susceptibility: mutation at codon 98
From the text: as §1, §2
The A98G mutation into the resistance test vector using the mega-primer method for site-directed mutagenesis (Sakar and Sommar, Ibid.). A resistance test vector containing the A98G mutation (A98G-RTV) was then tested using the phenotypic assay described earlier and the results were compared to those determined using a genetically defined resistance test vector that was wild type at position 98. We determined the pattern of phenotypic susceptibility to the NNRTIs, delavirdine, nevirapine and efavirenz, in the A98G-RTV.

[6] = system: Y181C-RTV; conditions: for change in susceptibility: Y181C, FIG. 5
From the text: as §1, with “Drug resistance was measured as the amount of drug required to inhibit by 50% the luciferase activity detected in the absence of drug (inhibitory concentration 50%, IC50).” left out
Host cells were seeded in 10-cm-diameter dishes and were transfected several days after plating with resistance test vector plasmid DNA and the envelope expression vector. […] HIV capsid protein (p24) levels in the harvested cell culture media were determined by an EIA method as described by the manufacturer (SIAC; Frederick, Md.). […] The inhibitory effect of the drug was determined using the following equation: % luciferase inhibition=1−(RLUluc [drug]÷RLUluc)×100 where RLUluc [drug] is the relative light unit of luciferase activity in infected cells in the presence of drug and RLUluc is the Relative Light Unit of luciferase activity in infected cells in the absence of drug. […]
The Y181C and A98G mutations were introduced alone and in combination into resistance test vectors using the mega-primer method for site-directed mutagenesis (Sakar and Sommar, Ibid.). […] We determined the pattern of phenotypic susceptibility to the NNRTIs, delavirdine, neviraphine and efavirenz, in the three vectors. […]

[7] = system: K103N-RTV; conditions: for change in susceptibility: K103N; for loss of susceptibility (fold, IC50) vs wild type control RTV: K103N alone
From the text: as §1, §2
The K101E, K103N and G190A mutations were introduced alone and in combination into resistance test vectors using the mega-primer method for site-directed mutagenesis (Sakar and Sommar, Ibid.).
(§5) The mutations Y188L, L100I and K103N were introduced alone and in combinationn into resistance test vectors using the mega-primer method for site-directed mutagenesis (Sakar and Sommar, Ibid.).

[8] = system: K103N-Y188L-RTV; conditions: for change in susceptibility: mutations at 103 and 188
From the text: as §1, §2, §5

[9] = system: L100I-K103N-Y188L-RTV; conditions: mutations at 103 and 100 and 188
From the text: as §1, §2, §5

[10] = system: L100I_K103N-RTV; conditions: for change in susceptibility: mutations at 100 and 103
From the text: as §1, §2, §5

Row | Structure (SMILES) | change in susceptibility [1] | change in susceptibility [2] | change in susceptibility (fold, IC50) vs wild type control RTV [3] [fold] | loss of susceptibility (fold, IC50) vs wild type control RTV [4] | change in susceptibility [4] | loss of susceptibility (fold, IC50) vs wild type control RTV [5] [fold] | change in susceptibility [5] | change in susceptibility [6] | change in susceptibility [7] | loss of susceptibility (fold, IC50) vs wild type control RTV [7] [fold] | change in susceptibility [8] | change in susceptibility [9] | change in susceptibility [10] | loss of susceptibility (fold, IC50) vs wild type control RTV ([6]; Y181C alone) | loss of susceptibility (fold, IC50) vs wild type control RTV ([8]; K103N and Y188L) | loss of susceptibility (fold, IC50) vs wild type control RTV ([10]; L100I and K103N) [fold]
1 | CC(C)Nc1cccnc1N1CCN(C(=O)c2cc3cc(NS(C)(=O)=O)ccc3[nH]2)CC1 [delavirdine] | less susceptible; also recorded: significant reduction; also recorded: decreased susceptibility; also recorded: decrease | more susceptible; also recorded: increase; also recorded: decreases the amount of delavirdine resistance | 1.6 | 75 fold | moderate decrease | 3 | slight decrease | resistance | reduced susceptibility; also recorded: resistance | 50 | substantial decrease | substantial decrease | substantial decrease |  |  | 
2 | O=C1Nc2ccc(Cl)cc2[C@@](C#CC2CC2)(C(F)(F)F)O1 [efavirenz] | no effect | little or no change | 1.4 | 88 fold | moderate decrese; also recorded: moderate decrease | 3 | slight decrease |  |  | 30 | substantial decrease | substantial decrease | substantial decrease | 3 fold and 4 fold |  | 
3 | Cc1ccnc2c1NC(=O)c1cccnc1N2C1CC1 [nevirapine] | no significant change; also recorded: little or no change; also recorded: little or no reduction; also recorded: no reduction | did not significantly change; also recorded: little or no change; also recorded: does not decrease; also recorded: no effect | 1.3 | greater than 800 fold | substantial decrease | 8 | slight decrease | resistance | reduced susceptibility; also recorded: resistance | 55 | substantial decrease | substantial decrease | moderate decrease |  | greater than 800 fold | 70
